According to paper doi:10.1101/2024.08.19.608619, “Discovery of potent SARS-CoV-2 nsp3 macrodomain inhibitors uncovers lack of translation to cellular antiviral response” (bioRxiv, 2024):

Assays:
KV channel = test: In vitro CEREP profiling, KV channel (antagonist radioligand); type: binding; details: test compound concentration 10 uM
Description: (§1) Supplement media-1.zip/Safety_Panel_Profile.csv, table | column: perc_inhibition

Na+ channel (site 2) = test: In vitro CEREP profiling, Na+ channel (site 2) (antagonist radioligand); type: binding; details: test compound concentration 10 uM
Description: as §1

COX1(h) = target: T1, COX1(h) (Homo sapiens, UniProt P23219); test: In vitro CEREP profiling, COX1(h); type: biochemical; details: test compound concentration 10 uM; Enzyme and Cell-based assays
T1 construct: purchased Eurofins Cerep (SafetyScreen44), recognised from the panel format
T1 sequence (P23219 24-599): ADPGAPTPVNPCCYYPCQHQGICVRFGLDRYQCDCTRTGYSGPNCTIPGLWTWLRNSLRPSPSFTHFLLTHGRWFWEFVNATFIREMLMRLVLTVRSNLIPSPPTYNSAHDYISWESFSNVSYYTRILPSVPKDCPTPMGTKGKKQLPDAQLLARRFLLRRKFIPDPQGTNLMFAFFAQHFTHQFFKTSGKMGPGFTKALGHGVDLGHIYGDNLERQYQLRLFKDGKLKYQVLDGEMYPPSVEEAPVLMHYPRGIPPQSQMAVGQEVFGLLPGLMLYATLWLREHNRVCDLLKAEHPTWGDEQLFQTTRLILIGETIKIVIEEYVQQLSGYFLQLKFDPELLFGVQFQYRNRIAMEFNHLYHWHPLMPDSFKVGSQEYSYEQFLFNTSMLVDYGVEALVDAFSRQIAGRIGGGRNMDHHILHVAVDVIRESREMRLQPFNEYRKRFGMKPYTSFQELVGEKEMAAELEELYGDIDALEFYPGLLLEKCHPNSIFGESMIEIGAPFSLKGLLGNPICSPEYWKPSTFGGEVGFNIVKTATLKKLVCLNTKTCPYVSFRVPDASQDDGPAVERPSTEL
Description: as §1

in vitro = details: human, hela-ace2 cells, 50.0
PDE3A (h) = target: T2, PDE3A (h) (Homo sapiens, UniProt Q14432); test: In vitro CEREP profiling, PDE3A (h); type: biochemical; details: test compound concentration 10 uM; Enzyme and Cell-based assays
T2 construct: purchased Eurofins Cerep (SafetyScreen44), recognised from the panel format
T2 sequence (Q14432 whole entry): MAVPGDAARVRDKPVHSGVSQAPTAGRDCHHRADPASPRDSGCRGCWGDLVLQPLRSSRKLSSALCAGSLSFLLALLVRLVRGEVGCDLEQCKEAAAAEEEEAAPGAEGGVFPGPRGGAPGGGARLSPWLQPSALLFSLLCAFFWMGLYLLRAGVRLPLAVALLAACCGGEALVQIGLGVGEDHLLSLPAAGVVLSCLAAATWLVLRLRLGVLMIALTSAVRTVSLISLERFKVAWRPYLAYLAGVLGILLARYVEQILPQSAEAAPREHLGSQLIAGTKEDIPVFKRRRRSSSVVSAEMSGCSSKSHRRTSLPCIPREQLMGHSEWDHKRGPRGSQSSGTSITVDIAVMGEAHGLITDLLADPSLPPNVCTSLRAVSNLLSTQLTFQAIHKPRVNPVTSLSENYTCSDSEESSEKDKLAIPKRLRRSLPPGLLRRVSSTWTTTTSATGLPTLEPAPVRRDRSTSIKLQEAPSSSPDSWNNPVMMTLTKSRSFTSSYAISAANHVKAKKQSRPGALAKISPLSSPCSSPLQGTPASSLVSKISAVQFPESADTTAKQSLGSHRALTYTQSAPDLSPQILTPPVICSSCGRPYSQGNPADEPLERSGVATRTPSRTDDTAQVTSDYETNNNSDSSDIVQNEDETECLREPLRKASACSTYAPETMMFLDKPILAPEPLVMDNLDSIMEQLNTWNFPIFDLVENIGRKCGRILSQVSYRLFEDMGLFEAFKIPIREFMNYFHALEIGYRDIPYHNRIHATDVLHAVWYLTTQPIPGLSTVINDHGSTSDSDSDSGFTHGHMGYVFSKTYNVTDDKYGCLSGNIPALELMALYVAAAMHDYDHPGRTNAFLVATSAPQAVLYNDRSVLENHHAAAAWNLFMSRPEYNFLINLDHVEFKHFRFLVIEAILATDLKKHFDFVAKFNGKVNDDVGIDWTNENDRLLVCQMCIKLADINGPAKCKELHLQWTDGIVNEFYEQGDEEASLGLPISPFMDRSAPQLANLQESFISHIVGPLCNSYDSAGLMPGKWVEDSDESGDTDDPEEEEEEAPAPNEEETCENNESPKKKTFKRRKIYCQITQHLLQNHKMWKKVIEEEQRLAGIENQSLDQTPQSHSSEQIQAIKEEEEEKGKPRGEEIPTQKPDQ
Description: as §1

human CHRM2 (M2) = target: T3, human CHRM2 (M2) (Homo sapiens, UniProt P08172); test: Eurofins CEREP panel, M2; type: binding; details: M2 (h) (antagonist radioligand); test compound concentration 10 uM
T3 construct: purchased Eurofins Cerep (SafetyScreen44), recognised from the panel format
T3 sequence (P08172 1-466): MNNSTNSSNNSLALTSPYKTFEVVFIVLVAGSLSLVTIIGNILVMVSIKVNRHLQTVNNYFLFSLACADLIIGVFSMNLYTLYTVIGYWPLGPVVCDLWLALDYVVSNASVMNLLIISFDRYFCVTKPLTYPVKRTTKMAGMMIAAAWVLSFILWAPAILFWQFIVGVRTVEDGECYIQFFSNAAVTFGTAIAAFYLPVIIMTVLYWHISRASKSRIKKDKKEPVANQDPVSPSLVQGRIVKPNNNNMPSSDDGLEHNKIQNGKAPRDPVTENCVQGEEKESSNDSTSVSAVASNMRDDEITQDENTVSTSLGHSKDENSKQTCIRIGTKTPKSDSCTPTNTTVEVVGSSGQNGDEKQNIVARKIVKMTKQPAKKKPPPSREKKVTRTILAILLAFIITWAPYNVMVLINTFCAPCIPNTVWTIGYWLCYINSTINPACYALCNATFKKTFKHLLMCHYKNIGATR

NMDA = test: In vitro CEREP profiling, NMDA (antagonist radioligand); type: binding
Description: as §1

D1 (h) = target: T4, D1 (h) (Homo sapiens, UniProt P21728); test: In vitro CEREP profiling, D1 (h) (antagonist radioligand); type: binding; details: test compound 10 uM
T4 construct: purchased Eurofins Cerep (SafetyScreen44), recognised from the panel format
Description: as §1

beta2 (h) = target: T5, beta2 (h) (Homo sapiens, UniProt P07550); test: In vitro CEREP profiling, beta2 (h) (antagonist radioligand); type: binding; details: test compound 10 uM
T5 construct: purchased Eurofins Cerep (SafetyScreen44), recognised from the panel format
T5 sequence (P07550 whole entry): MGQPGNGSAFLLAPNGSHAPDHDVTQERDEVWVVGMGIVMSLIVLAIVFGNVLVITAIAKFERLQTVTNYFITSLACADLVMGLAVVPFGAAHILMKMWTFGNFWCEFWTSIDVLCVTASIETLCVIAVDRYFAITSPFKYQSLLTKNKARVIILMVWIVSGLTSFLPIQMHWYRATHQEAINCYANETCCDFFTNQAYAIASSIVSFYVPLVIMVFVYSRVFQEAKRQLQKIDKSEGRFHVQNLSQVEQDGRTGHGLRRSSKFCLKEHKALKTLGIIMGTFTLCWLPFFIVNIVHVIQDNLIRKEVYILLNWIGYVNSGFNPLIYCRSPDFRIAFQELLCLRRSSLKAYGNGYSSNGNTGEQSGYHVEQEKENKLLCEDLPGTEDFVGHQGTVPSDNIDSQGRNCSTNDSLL
Description: as §1

H2 (h) = target: T6, H2 (h) (Homo sapiens, UniProt P25021); test: In vitro CEREP profiling, H2 (h) (antagonist radioligand); type: binding; details: test compound concentration 10 uM
T6 construct: purchased Eurofins Cerep (SafetyScreen44), recognised from the panel format
T6 sequence (P25021 whole entry): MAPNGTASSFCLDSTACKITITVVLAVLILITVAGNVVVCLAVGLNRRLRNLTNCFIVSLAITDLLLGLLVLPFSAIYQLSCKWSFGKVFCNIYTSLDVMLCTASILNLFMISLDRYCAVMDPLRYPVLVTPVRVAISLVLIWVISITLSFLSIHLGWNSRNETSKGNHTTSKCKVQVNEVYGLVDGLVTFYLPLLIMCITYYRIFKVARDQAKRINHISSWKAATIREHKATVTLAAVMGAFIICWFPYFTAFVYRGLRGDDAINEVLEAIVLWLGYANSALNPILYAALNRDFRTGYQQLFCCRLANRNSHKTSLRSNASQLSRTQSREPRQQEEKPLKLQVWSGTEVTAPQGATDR
Description: as §1

D2S (h) = target: T7, D2S (h) (Homo sapiens, UniProt P14416); test: In vitro CEREP profiling, D2S (h) (agonist radioligand); type: binding; details: test compound 10 uM
T7 construct: purchased Eurofins Cerep (SafetyScreen44), recognised from the panel format
T7 sequence (P14416 1-414 isoform P14416-2): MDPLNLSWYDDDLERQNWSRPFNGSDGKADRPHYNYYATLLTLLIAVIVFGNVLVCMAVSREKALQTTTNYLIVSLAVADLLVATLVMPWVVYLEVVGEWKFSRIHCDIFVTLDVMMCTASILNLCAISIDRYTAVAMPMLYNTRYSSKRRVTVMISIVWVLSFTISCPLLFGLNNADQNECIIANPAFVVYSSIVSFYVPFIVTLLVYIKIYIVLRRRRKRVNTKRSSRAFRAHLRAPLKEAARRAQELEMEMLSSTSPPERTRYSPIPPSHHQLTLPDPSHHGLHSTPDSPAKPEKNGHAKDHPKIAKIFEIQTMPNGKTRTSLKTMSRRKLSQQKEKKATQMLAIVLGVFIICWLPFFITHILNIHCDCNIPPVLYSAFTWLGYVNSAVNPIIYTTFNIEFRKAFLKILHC
Description: as §1

MAO-A = target: T8, MAO-A (Rattus norvegicus, UniProt P21396); test: In vitro CEREP profiling, MAO-A (antagonist radioligand); type: binding; details: test compound concentration 10 uM
T8 construct: purchased Eurofins Cerep (SafetyScreen44), recognised from the panel format
T8 sequence (P21396 1-526): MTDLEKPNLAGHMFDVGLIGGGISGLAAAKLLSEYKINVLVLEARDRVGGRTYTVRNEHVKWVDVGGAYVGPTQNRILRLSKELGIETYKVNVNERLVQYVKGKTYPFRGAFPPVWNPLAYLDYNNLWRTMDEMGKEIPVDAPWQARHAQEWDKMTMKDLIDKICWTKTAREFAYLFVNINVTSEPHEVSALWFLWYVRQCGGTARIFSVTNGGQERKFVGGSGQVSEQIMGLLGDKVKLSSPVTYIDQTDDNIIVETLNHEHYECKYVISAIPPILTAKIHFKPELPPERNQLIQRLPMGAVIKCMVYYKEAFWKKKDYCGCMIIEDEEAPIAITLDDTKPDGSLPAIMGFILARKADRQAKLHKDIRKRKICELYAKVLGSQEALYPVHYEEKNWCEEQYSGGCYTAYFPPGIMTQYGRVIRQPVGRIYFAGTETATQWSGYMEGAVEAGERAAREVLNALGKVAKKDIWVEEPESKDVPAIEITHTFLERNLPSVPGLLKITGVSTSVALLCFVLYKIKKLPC
Description: as §1

delta (DOP) (h) = target: T9, delta (DOP) (h) (Homo sapiens, UniProt P41143); test: In vitro CEREP profiling, delta (DOP) (h) (agonist radioligand); type: binding; details: test compound concentration 10 uM
T9 construct: purchased Eurofins Cerep (SafetyScreen44), recognised from the panel format
T9 sequence (P41143 whole entry): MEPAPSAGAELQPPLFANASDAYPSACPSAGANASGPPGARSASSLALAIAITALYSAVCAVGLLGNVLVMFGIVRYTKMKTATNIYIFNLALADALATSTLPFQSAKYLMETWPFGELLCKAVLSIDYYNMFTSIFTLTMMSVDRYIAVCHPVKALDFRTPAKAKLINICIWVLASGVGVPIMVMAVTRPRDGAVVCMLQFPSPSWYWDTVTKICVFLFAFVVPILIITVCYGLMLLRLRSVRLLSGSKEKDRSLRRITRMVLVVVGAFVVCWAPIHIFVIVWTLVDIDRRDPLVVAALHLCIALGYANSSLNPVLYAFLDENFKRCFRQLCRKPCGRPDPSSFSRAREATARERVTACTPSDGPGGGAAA
Description: as §1

[1] = target: T10, Potassium Channel hERG (human) (Homo sapiens, UniProt Q12809); test: In vitro CEREP profiling, Potassium Channel hERG (human)- [3H] Dofetilide; type: binding; details: test compound concentration 10 uM
T10 construct: purchased Eurofins Cerep (SafetyScreen44), recognised from the panel format
T10 sequence (Q12809 whole entry): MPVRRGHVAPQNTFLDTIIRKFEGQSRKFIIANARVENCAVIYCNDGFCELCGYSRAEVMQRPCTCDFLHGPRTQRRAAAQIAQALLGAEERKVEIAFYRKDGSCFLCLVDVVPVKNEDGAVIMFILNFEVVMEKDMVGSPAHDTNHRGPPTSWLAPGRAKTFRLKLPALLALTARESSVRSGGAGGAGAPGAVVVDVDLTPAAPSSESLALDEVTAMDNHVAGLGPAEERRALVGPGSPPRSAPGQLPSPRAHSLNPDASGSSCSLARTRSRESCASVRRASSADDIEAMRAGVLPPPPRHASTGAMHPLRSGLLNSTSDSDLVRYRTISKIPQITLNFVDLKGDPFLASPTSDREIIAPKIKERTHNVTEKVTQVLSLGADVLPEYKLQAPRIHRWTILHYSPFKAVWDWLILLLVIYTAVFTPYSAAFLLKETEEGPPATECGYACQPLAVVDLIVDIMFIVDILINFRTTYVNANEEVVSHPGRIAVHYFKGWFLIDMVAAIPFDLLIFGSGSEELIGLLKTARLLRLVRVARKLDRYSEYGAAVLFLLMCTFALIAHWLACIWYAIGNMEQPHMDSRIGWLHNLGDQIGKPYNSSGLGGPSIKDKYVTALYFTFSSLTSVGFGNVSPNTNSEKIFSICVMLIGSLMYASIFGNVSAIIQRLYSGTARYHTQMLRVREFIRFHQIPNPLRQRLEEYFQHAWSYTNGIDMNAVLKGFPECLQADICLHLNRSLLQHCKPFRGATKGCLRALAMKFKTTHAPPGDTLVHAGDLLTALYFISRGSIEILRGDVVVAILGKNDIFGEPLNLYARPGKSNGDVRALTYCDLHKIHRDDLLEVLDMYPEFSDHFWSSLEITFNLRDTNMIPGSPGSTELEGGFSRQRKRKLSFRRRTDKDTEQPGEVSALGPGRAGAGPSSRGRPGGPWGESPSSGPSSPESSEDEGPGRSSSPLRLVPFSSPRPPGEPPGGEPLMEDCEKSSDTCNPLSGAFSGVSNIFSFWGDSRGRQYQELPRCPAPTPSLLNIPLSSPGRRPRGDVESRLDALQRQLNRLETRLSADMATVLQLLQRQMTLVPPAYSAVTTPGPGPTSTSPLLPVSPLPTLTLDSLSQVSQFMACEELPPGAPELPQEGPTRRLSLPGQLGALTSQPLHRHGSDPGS
Description: as §1

alpha1A (h) = target: T11, alpha1A (h) (Homo sapiens, UniProt P35348); test: In vitro CEREP profiling, alpha1A (h) (antagonist radioligand); type: binding; details: test compound 10 uM
T11 construct: purchased Eurofins Cerep (SafetyScreen44), recognised from the panel format
T11 sequence (P35348 1-466): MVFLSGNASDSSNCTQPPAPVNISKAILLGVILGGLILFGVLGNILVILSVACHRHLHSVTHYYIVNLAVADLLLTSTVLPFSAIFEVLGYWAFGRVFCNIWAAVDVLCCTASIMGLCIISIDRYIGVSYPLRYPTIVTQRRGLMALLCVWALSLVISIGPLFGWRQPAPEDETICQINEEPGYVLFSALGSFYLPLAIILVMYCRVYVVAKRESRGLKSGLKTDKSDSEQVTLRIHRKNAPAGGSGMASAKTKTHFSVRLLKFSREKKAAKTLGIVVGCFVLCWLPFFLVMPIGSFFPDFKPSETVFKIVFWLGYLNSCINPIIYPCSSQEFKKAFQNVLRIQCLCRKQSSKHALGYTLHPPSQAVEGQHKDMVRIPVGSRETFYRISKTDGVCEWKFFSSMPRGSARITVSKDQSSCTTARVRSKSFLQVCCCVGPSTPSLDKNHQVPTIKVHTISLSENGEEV
Description: as §1

M3 (h) = target: T12, M3 (h) (Homo sapiens, UniProt P20309); test: In vitro CEREP profiling, M3 (h) (antagonist radioligand); type: binding; details: test compound concentration 10 uM
T12 construct: purchased Eurofins Cerep (SafetyScreen44), recognised from the panel format
T12 sequence (P20309 whole entry): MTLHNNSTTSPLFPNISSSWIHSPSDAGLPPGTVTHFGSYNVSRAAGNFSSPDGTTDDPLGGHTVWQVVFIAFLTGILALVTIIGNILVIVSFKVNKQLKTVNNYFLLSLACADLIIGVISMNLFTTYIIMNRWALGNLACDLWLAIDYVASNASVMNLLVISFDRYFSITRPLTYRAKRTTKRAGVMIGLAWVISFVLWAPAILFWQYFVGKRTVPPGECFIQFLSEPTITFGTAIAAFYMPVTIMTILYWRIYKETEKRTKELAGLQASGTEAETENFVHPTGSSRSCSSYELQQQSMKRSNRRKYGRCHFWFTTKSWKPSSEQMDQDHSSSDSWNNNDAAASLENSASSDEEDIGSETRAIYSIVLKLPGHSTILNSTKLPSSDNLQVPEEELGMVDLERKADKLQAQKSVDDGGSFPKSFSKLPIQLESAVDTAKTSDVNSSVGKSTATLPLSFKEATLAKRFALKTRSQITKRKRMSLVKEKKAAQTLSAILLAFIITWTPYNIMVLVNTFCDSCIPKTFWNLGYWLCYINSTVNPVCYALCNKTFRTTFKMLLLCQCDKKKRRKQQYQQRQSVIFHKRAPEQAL
Description: as §1

hERG = hERG (Homo sapiens, UniProt Q12809); test: In vitro hERG cardiotoxocity; details: for perc_inhibition_top_conc: at top test concentration 30 uM; for IC50: top test concentration 30 uM
Description: Supplement media-1.zip/Cardiotoxicity.csv, table | column: ic50; perc_inhibition_top_conc

[2] = In vitro human hepatocyte stability; type: in vitro ADME
Description: Supplement media-1.zip/Hepatocyte_Stability.csv, table | column: clint; t_half

[3] = test compound concentration 10 uM

| Compound | perc_inhibition (% inhibition of the binding of a ligand specific for each target) (KV channel) [%] | perc_inhibition (% inhibition of the binding of a ligand specific for each target) (Na+ channel (site 2)) [%] | perc_inhibition: % inhibition of control enzyme activity, COX1(h) (COX1(h)) [%] | CC50 at 24 h (in vitro) [µM] | perc_inhibition: % inhibition of control enzyme activity, PDE3A (h) (PDE3A (h)) [%] | perc_inhibition (% inhibition of the binding of a ligand specific for each target) (human CHRM2 (M2)) [%] | perc_inhibition (% inhibition of the binding of a ligand specific for each target) (NMDA; [3]) [%] | perc_inhibition (% inhibition of the binding of a ligand specific for each target) (D1 (h)) [%] | perc_inhibition (% inhibition of the binding of a ligand specific for each target) (beta2 (h)) [%] | perc_inhibition (% inhibition of the binding of a ligand specific for each target) (H2 (h)) [%] | perc_inhibition (% inhibition of the binding of a ligand specific for each target) (D2S (h)) [%] | perc_inhibition (% inhibition of the binding of a ligand specific for each target) (MAO-A) [%] | perc_inhibition (% inhibition of the binding of a ligand specific for each target) (delta (DOP) (h)) [%] | perc_inhibition (% inhibition of the binding of a ligand specific for each target) [1] [%] | perc_inhibition (% inhibition of the binding of a ligand specific for each target) (alpha1A (h)) [%] | perc_inhibition (% inhibition of the binding of a ligand specific for each target) (M3 (h)) [%] | perc_inhibition_top_conc (hERG) [%] | IC50 (hERG) [µM] | clint [2] [uL/min/1E6 cells] | t_half [2] [min] | further results |
| --- | --- | --- | --- | --- | --- | --- | --- | --- | --- | --- | --- | --- | --- | --- | --- | --- | --- | --- | --- | --- | --- |
| CC(C)[C@H](Nc1ncnc2[nH]ccc12)c1ccc2c(c1)S(=O)(=O)CCC2 [ASAP-0008674] | -10 | -5 | 85 | > 20 | 29 | 34 | -1 | -4 | -1 | -6 | -14 | 7 | 30 | 20 | -2 | 5 | 39.0 | > 30 | 27.9 | 24.8 | – |
| CNCc1cc(-c2cc3c(N[C@@H](c4ccc5c(c4)S(=O)(=O)CCC5)C(C)C)ncnc3[nH]2)co1 [ASAP-0011176] | 1 | 19 | -6 | > 20 | -5 | 52 | -1 | 14 | 6 | -3 | -9 | 11 | 53 | 26 | 50 | 5 | 26.0 | > 30 | 14.2 | 48.9 | – |
| C[C@H](C(=O)O)[C@@H](NC(=O)c1ncnc2[nH]ccc12)c1ccc(Br)cc1 [ASAP-0014722] | 0 | 6 | 14 | > 20 | 52 | -4 | – | -8 | -8 | -21 | -1 | -1 | -24 | 14 | -8 | -9 | 28.0 | > 30 | < 3.0 | > 231.0 | perc_inhibition (% inhibition of the binding of a ligand specific for each target) (NMDA; test compound 10 uM): 4% |
| CC(C)[C@H](Nc1ncnc2[nH]c(-c3cnn(C)c3C#N)cc12)c1ccc2c(n1)OCCO2 [ASAP-0010715] | 0 | 10 | -39 | > 20 | 37 | 18 | 2 | 27 | 3 | -16 | -7 | 4 | 58 | 29 | 34 | -15 | – | 11 | 28.7 | 24.2 | – |
